How the values were obtained:
Caco-2 cell layers = assay: Transport study across Caco-2 cell layers; settings: Caco-2 model; PFAS mixture 1 µM each; not detected in the basolateral compartment
Experimental: (§1) Human colorectal adenocarcinoma cells (Caco-2, HTB-37) were obtained from American Type Culture Collection (ATCC, Manassas, VA). Cells were cultured in a humidified incubator (37°C, 5% CO2) in Dulbecco’s modified Eagle’s medium (DMEM) supplemented with 10% heat-inactivated fetal bovine serum (Gibco, Thermo Fisher Scientific, Waltham, MA), 1% non-essential amino acids (Gibco) and 1% penicillin/streptomycin (Sigma). For experiments, Caco-2 cells below passage number 50 were used within 10 passages. They were harvested at 80% confluence using Trypsin/EDTA (0.25%/0.05%; PAN Biotech, Aidenbach, Germany) and seeded at a density of 4 × 10^5 cells/cm^2 into inserts with a polycarbonate membrane (0.4 µm pore, Corning, New York, NY). After 21 days of differentiation (using 500 µl cell culture medium in the apical and 1500 µl in the basolateral compartment), monolayer integrity was determined by measuring transepithelial electrical resistance (TEER) with a Millicell ERS Volt-Ohm meter (Millipore, Bedford, MA).
(§2) Transport studies were performed in Caco-2 cells, hiPSC-derived IECs and EpiIntestinal microtissues. To that end, Caco-2 cell layers were differentiated for 21 days and hiPSCs were differentiated into IEC layers for 26 days, as described above. EpiIntestinal microtissues were subjected to transport studies 1 day after arrival. […] For all models, PFAS transport was assessed in apical to basolateral, and basolateral to apical direction using HBSS containing a mixture of PFASs containing 1 µM of each PFAS. See Supplementary Data for a detailed description of the method used for the transport studies of the model compounds and PFASs.
(§3) Prior to exposure to the transport study compounds, the cells were washed with transport medium (HBSS; Sigma). […] 100 µL aliquots were collected from the basolateral compartment and replaced with the same volume HBSS at settled time points (0, 15, 30 and 60 min). For basolateral to apical transport in the EpiIntestinal microtissues, 0.2 mL HBSS was added to the apical compartment and 0.5 mL HBSS containing a mixture of PFASs containing 1 µM of each PFAS, was added to the basolateral compartment. 100 µL aliquots were collected from the apical compartment and replaced with the same volume of HBSS at settled time points (0, 15, 30 and 60 min). For apical to basolateral transport across the Caco-2 cell layers and hiPSC-derived IEC layers, 1.2 mL HBSS was added to the basolateral compartment and 0.4 mL HBSS containing either model compounds (10 µM) or a mixture of PFASs containing 1 µM of each PFAS, was added to the apical compartment. 100 µL aliquots were collected from the basolateral compartment and replaced with the same volume of HBSS at settled time points (0, 7.5, 15, 30 and 60 min for the model compounds with both models and the PFASs with the hiPSC-derived IEC layers and 0, 15, 30 and 60 min for PFASs with the Caco-2 cell layers). For basolateral to apical transport, 0.4 mL HBSS was added to the apical compartment and 1.2 mL HBSS containing 10 µM of the model compounds or a mixture of PFASs containing 1 µM of each PFAS, was added to the basolateral compartment. 100 µL aliquots were collected from the apical compartment and replaced with the same volume of HBSS at settled time points (0, 7.5, 15, 30 and 60 min for the model compounds with both models and the PFASs with the hiPSC-derived IEC layers and 0, 15, 30 and 60 min for PFASs with the Caco-2 cell layers). After 60 minutes, all liquid was collected from the apical and basolateral compartment and the cells were lysed in 200 µL RIPA buffer (Thermo Fisher Scientific), and chemicals were quantified in the different compartments (apical, basolateral and cells) in order to calculate the mass balance.
(§4) The apparent permeability coefficient (Papp, cm/s) was calculated using the following equation: […]

[1] = Transport study across Caco-2 cell layers; settings: human, Caco-2
Experimental: as §1, §2, §3, §4

[2] = Transport study across EpiIntestinal microtissues; settings: human
Experimental: The human EpiIntestinal small intestinal microtissues, consisting of epithelial cells and an underlying lamina propria containing intestinal fibroblasts, were obtained from MatTek Life Sciences (Ashland, USA). Cell culture inserts (8.8 mm ID) were placed in 12-well plates and cells were maintained in 100 µl maintenance medium (MatTek Life Sciences) in the apical compartment and 5 ml maintenance medium in the basolateral compartment upon arrival. The transport studies were performed 1 day after arrival.
as §2, §3, §4
where A is the surface area (cm^2), dQ is the amount of the compound transported (nmol) over the respective time interval dt (s) and C0 is the initial concentration in the donor compartment (µM).

[3] = Transport study across hiPSC-derived IEC layers; settings: human
Experimental: For differentiation into IECs, definitive endoderm cells were subsequently differentiated into intestinal stem cells by changing medium into DMEM/F12 containing 2% fetal bovine serum, 1% GlutaMAX (Gibco) and 250 ng/ml FGF2 (R&D Systems). After 4 days, cells were dissociated using Accutase and seeded onto polyester Transwell inserts (0.4 µm, Corning) coated with Growth Factor Reduced Matrigel #356231. Cells were cultured for 7 days in intestinal differentiation medium (DMEM/F-12 containing 2% fetal bovine serum, 1% non-essential amino acids (Gibco), 1 × B27 (Gibco), 1 × N2 (Gibco), 1% penicillin/streptomycin (Gibco) and 2 mM L-glutamine (Gibco)) supplemented with 20 ng/ml EGF (R&D Systems) and 30 µM Forskolin (Sigma). ROCK inhibitor, y-27632 (final concentration 10 µM; Stem Cell Technologies), was added during the initial 24 h after seeding to reduce cell death. The cells were subsequently cultured for 12 days in intestinal differentiation medium supplemented with 20 ng/ml EGF, 30 µM Forskolin, 5 µM 5-aza-2′-deoxycytidine (Sigma), 20 µM PD98059 (Stem Cell Technologies) and 0.5 µM A-83–01 (Sigma). The medium was refreshed every 2–3 days. Barrier integrity was determined by measuring apical to basolateral translocation of Lucifer yellow (see Supplementary Data for a detailed description).
as §2
as §3, with “layers).” for “layers). After 60 minutes, all liquid was collected from the apical and basolateral compartment and the cells were lysed in 200 µL RIPA buffer (Thermo Fisher Scientific), and chemicals were quantified in the different compartments (apical, basolateral and cells) in order to calculate the mass balance.”

hiPSC-derived IEC layers = assay: Barrier integrity: apical to basolateral translocation of lucifer yellow; type: in vitro ADME, human; settings: terminally differentiated IECs; 500 µg/ml apical, 3 hours; data not shown
Experimental: The medium was refreshed every 2–3 days.
To determine barrier integrity of the hiPSC-derived IEC layers, apical to basolateral translocation of lucifer yellow was measured. 500 µg/ml Lucifer yellow, in differentiation medium, containing EGF, Forskolin, 5-aza-2′-deoxycytidine, PD98059, A-83-01, was added to the apical compartment (400 µl/insert) and incubated at 37 °C for 3 hours. 50 µl medium was collected from the basolateral compartment at 30 min intervals. The fluorescence intensity was measured at 485 nm excitation and 530 nm emission wavelength using a microplate reader (Synergy HT, BioTek, Winooski, VT).

| Molecule | Transport (in words) (Caco-2 cell layers) | Papp B→A at 60 min, 1 µM [1] | Papp A→B at 60 min, 1 µM [2] | Papp B→A at 60 min, 1 µM [2] | efflux ratio at 60 min, 1 µM [2] | Papp A→B at 60 min, 1 µM [3] | Papp B→A at 60 min, 1 µM [3] | efflux ratio at 60 min, 1 µM [3] | Apical to basolateral transport of lucifer yellow (hiPSC-derived IEC layers) |
| --- | --- | --- | --- | --- | --- | --- | --- | --- | --- |
| O=C(O)C(F)(OC(F)(F)C(F)(F)C(F)(F)F)C(F)(F)F (stereo not drawn) [HFPO-DA, hexafluoropropylene oxide dimer acid] | no transport | 1.23 ± 0.25 ×10⁻⁶ cm/s | 1.16 ± 0.19 ×10⁻⁶ cm/s | 1.04 ± 0.09 ×10⁻⁶ cm/s | 0.9 | 3.09 ± 0.09 ×10⁻⁶ cm/s | 4.49 ± 0.27 ×10⁻⁶ cm/s | 1.45 |  |
| lucifer yellow |  |  |  |  |  |  |  |  | no quantifiable |

— PMC11489206, “Transport of perfluoroalkyl substances across human induced pluripotent stem cell-derived intestinal epithelial cells in comparison with primary human intestinal epithelial cells and Caco-2 cells” (Archives of Toxicology, 2024)
